According to patent US20220241331A1, “IDENTIFICATION OF RECURRENT MUTATED NEOPEPTIDES” (Yeda Research and Development Co. Ltd., priority 2019, published 2022):

T1: RAS wild-type (NRAS) peptide on HLA-A*01:01 (human)
T1 peptide: ILDTAGQEEY

T2: NRAS Q61K (RAS.Q61K) peptide on HLA-A*01:01 (human)
T2 peptide: ILDTAGKEEY


Experiments:
[1] = system: 17TIL; assay: IFNγ release ELISA, 17TIL co-incubated with peptide-pulsed A*01:01 B-cells; type: cell-based, human; conditions: for IFN-γ release from TIL stimulated by pulsed peptide: peptide-pulsed A*01:01 EBV-transformed B cells, overnight co-incubation, vs non-pulsed B-cell control (FIG. 3A); for TIL IFNγ response in peptide titration: titrated concentrations of pulsed peptide (FIG. 3B)
Experimental: (§1) IFNγ's release from TIL, as measured in an enzyme-linked immunosorbent assay (ELISA), was used to quantify reactivity. Synthetic pure (>95% purity) mutant ([…] (SEQ ID NO: 1)) and wild-type ([…] (SEQ ID NO: 2)) peptides were purchased from GenScript and dissolved in DMSO.
(§2) EBV-transformed B-cells bearing HLA allele A*01:01 were used for peptide pulsing. A B-cell suspension at 1×10^6 cells/ml was incubated with the peptide of choice, at the desired concentration (0.001-10 μg/ml), for 4 h in a 37° C., 5% CO2, humidified incubator. The DMSO volume was kept at 1% in all samples. For the no-peptide control, DMSO devoid of peptides was added. The B-cells were washed in PBS three times before proceeding to the co-incubation with TILs. TILs were co-cultured with either cognate melanoma or EBV-transformed B-cells at a 1:1 ratio (10^5-2×10^6 cells) and incubated overnight in a 37° C., 5% CO2, humidified incubator. The soluble IFNγ secreted from TILs was quantified from the co-culture supernatant using Biolegend Human IFN-γ ELISA MAX Deluxe (Cat#430106). All experiments were conducted in biological triplicates.
(§3) To evaluate the immunogenicity of the NRAS.Q61K neo-antigen, two melanoma cell lines that harbor the HLA-A*01:01/NRAS.Q61K combination, 17T and 135T were analyzed. Synthetic mutant (ILDTAG ? EEY-SEQ ID NO: 1) or wild-type (ILDTAG ? EEY-SEQ ID NO: 2) peptide was pulsed on either one of three commercial, A*01:01 expressing, Epstein bar virus (EBV)-transformed B cells^35. No other HLA class-I allele was shared among all three B-cell lines, and no other HLA class-I allele expressed by these cell lines was predicted to bind the neo-peptide at hand (Table 2).
(§4) The peptide-pulsed B-cells were co-incubated with either 17TIL or 135TIL overnight, followed by measurement of peptide stimulated interferon-γ (IFN-γ) release from the TIL by means of enzyme-linked immunosorbent assay (ELISA). […] Peptide titration assays further confirmed specific TIL reactivity towards the HLA-A*01:01/NRAS.Q61K neo-antigen, for both 17TIL and 135TIL (FIG. 3B).

[2] = system: 135TIL; assay: IFNγ release ELISA, 135TIL co-incubated with peptide-pulsed A*01:01 B-cells; type: cell-based, human; conditions: for IFN-γ release from TIL stimulated by pulsed peptide: peptide-pulsed A*01:01 EBV-transformed B cells, overnight co-incubation, vs non-pulsed B-cell control (FIG. 3A); for TIL IFNγ response in peptide titration: titrated concentrations of pulsed peptide (FIG. 3B)
Experimental: as §1, §2, §3, §4

[3] = molecular target: T1, RAS wild-type (NRAS) peptide on …; assay: cytokine release
Experimental: (§5) Peripheral mononuclear cells (PBMC) from healthy donors were electroporated with in-vitro transcribed mRNA, coding for TCRα/TCRβ combinations of interest. […] (A) Flow cytometry plots for electroporated PBMC. Top row—mouse TCRβ constant region staining. Bottom row—[sequence]/A*01:01 tetramer staining. Cells were stained at 6-30 hours post electroporation. (B) IFNγ release from electroporated donor PBMC as measured in ELISA. A*01:01+ B-LCL IHW01161 was pulsed with either wild-type or mutant versions of the peptide at 10 μM prior to overnight co-incubation with electroporated PBMC. Supernatants were diluted 1:20 prior to assay performance to avoid saturation.

[4] = molecular target: T2, NRAS Q61K (RAS.Q61K) peptide on …; assay: multimer staining
Experimental: as §5

[5] = molecular target: T2, NRAS Q61K (RAS.Q61K) peptide on …; assay: cytokine release
Experimental: as §5

Molecule | IFN-γ release from TIL stimulated by pulsed peptide [1] | TIL IFNγ response in peptide titration [1] | IFN-γ release from TIL stimulated by pulsed peptide [2] | TIL IFNγ response in peptide titration [2] | binding result [3] | binding result [4] | further results
ILDTAGQEEY [WT RAS.Q61-derived peptide, reference compound] | did not elicit significant increase over a non-pulsed B-cell control | non-significant and did not depend on peptide concentration | did not elicit significant increase over a non-pulsed B-cell control | non-significant and did not depend on peptide concentration |  |  | 
ILDTAGKEEY [RAS.Q61-derived neo-peptide, variant Q61K; presented on HLA-A*01:01] | stimulated a clear interferon-γ (IFN-γ) signal | clear dose-response relationship | stimulated a clear interferon-γ (IFN-γ) signal | clear dose-response relationship |  |  | minimum peptide concentration with significant IFNγ response ([1]; peptide titration (FIG. 3B)): 10 ng/mL; minimum peptide concentration with significant IFNγ response ([2]; peptide titration (FIG. 3B)): 1 ng/mL
N17.3 (TCR) alpha TRAV19 TRAJ17 CDR3: CALSESGDAAGNKLTF beta TRBV6-1 TRBJ1-1 CDR3: CAEGENTEAFF |  |  |  |  | no recognition | recognises | 
NA135.1/NB17.3 (TCR) alpha TRAV19 TRAJ39 CDR3: CALSESHNNAGNMLTF beta TRBV6-1 TRBJ1-1 CDR3: CAEGENTEAFF |  |  |  |  |  |  | binding result [5]: recognises
N135.1 (TCR) alpha TRAV19 TRAJ39 CDR3: CALSESHNNAGNMLTF beta TRBV6-1 TRBJ1-1 CDR3: CAASQNTEAFF |  |  |  |  | no recognition | recognises | 
N17.2 (TCR) alpha TRAV5 TRAJ9 CDR3: CAESSGGGFKTIF beta TRBV6-6 TRBJ2-7 CDR3: CASSTPGPSAYEQYF |  |  |  |  | no recognition | recognises | 
